Data from patent publication US20260102417A1, “COMPOSITIONS FOR THE TREATMENT AND PREVENTION OF CANCER” (Keyzell Holding S.L., priority 2022, published 2026).
Entries after “also recorded” stand apart in the source; their conditions may differ.

Legend:
[1] = system: B16F10 cells (mouse melanoma model); experiment: Mouse melanoma model: B16F10 cells subcutaneously in C57BL/6J female mice; assay type: in vivo; settings: FIG. 11, treatments administered for 7-9 days, 30 mg/kg per Table 2
Source text: For in vivo studies, the drugs fosaprepitant dimeglumine salt (CAS No 265121-04-8, Selleck Chemicals), Cerenia® (Maropitant citrate injectable solution; Zoetis US), InVivoMAb Anti-mouse CTLA-4 (CD152) (BE0032, Bio cell), InVivoMAb Anti-mouse PD-1 (CD279) (BE0146, Bio cell) and Rat IgG2a k isotype (ref BE0089) were used.
B16F10 cells (1×10^6 per mouse) were subcutaneously injected into the right flank of C57BL/6J female mice (Charles River) with matrigel (Matrigel Membrane Matrix, Corning) at 50% v/v. Tumour growth was evaluated every 2/3 days. Animal vital parameters were monitored daily. When the tumours reached an average volume of 100-150 mm^3, mice were randomised into cohorts of 6 animals and treatments were administered for 7-9 days. Groups and regimens for each experiment are described in Table 2. Animals of the control group were dosed with equal volume of vehicle. Animals were euthanized according to institutional guidelines and tumour samples were excised. Tumours were snap-frozen in OCT medium (Sakura Tissue Tek) or fixed in PFA and embedded in paraffin. Several internal organs were also excised and fixed in PFA for future studies.

[2] = system: osteoclastic osteosarcoma clinical stage IV; experiment: Compassionate use of aprepitant in a patient with osteosarcoma; assay type: in vivo, human
Method: On Dec. 9, 2022 the patient was approved for compassionate use of aprepitant at a dose of 4200 mg orally divided into 3 doses (the total daily dose being 4200 mg) along with ifosfamide and etoposide as a fourth line of treatment. Close clinical surveillance of the patient was initiated to monitor quality of life, functional status and manifestation of adverse reactions to treatment, as well as periodic serological surveillance and measurement of response to treatment by imaging studies using the RECIST 1.1 criteria.

[3] = system: cell lines of Table 1 (3LL, 4T1, B16F10, CT26WT, PTEN, RT112, MCF7 cells); experiment: MTT cell viability (cytotoxicity) assay in tumour cell lines, FIGS. 1-9; assay type: cell-based, mouse, rat and human; settings: cell viability after 24 hours or 48 hours
Method: 21 Cell lines of three different species (mouse, rat and human) were used in this study (Table 1). All of them were maintained in culture in their respective culture media (Gibco, Thermo Fisher Scientific) supplemented with 10% fetal bovine serum (FBS) (Gibco, Thermo Fisher Scientific), 2 mM L-Glutamine (Sigma-Aldrich, Merk), and Peni-Strep (50 U/ml and […]; Gibco, Thermo Fisher Scientific) in a humidified incubator at 37° C. and 5% CO2.
The cytotoxicity of the drugs in culture was evaluated using the 3-(4,5-Dimethyl-2-thiazolyl)-2,5-diphenyl-2H-tetrazolium bromide (MTT) reduction assay. The assay assesses cell viability through the indirect measurement of the activity of reductases that convert yellow soluble MTT into purple insoluble formazan salts. As MTT can only be reduced when these enzymes are active, the reaction is used as an indicator of the cell metabolic competence and, therefore, of viability.
A variable number of cells (depending on the cell line) were seeded in 96 multi-well plates and grown during 24 Hours Cell Viability. The following day the culture medium was aspirated and fresh culture medium with the drug dissolved was added to the wells. After 24 Hours Cell Viability or 48 Hours Cell Viability cell viability was measurement by adding 10 μl of a 5 mg/ml MTT solution (M5655; Sigma-Aldrich) and 100 μl of a Hcl 0.01M-SDS 10% solution 4 hours later. After 24 Hours Cell Viability, the absorbance was measured at 595 nm, using a multi-well plate reader (iMark, Bio-rad).

[4] = system: a range of provoked cancers and tumours; settings: immunocompromised nude mice; 10-80 mg/kg per day, up to 28 days; cited from earlier work
[5] = system: osteosarcoma cell line, MG-63; settings: immunocompromised nude mice; injected weekly at 80 mg/kg; cited from earlier work
[6] = Feb. 6, 2023, aprepitant 4200 mg per day with ifosfamide and etoposide
[7] = PET/CT Jan. 9, 2023, aprepitant 4200 mg per day with ifosfamide and etoposide
[8] = aprepitant 4200 mg per day with ifosfamide and etoposide

SMILES: COc1ccc(C(C)(C)C)cc1CN[C@H]1C2CCN(CC2)[C@H]1C(c1ccccc1)c1ccccc1 [Maropitant]
- tumoral growth [1]: reduces tumoral growth

SMILES: C[C@@H](O[C@H]1OCCN(Cc2nc(=O)[nH][nH]2)[C@H]1c1ccc(F)cc1)c1cc(C(F)(F)F)cc(C(F)(F)F)c1 [aprepitant, 5-[[(2R, 3S)-2-[(1R)-1-[3,5-bis(trifluoromethyl)phenyl]ethoxy]-3-(4-fluorophenyl)-4-morpholinyl]methyl]-1,2-dihydro3H-1,2,4-triazol-3-one]
- left upper nodule [2, 6]: 21 mm
- pulmonary nodule in left lower lobe [2, 6]: 16.5 mm
- pulmonary nodule in left lower nodule [2, 6]: 10 mm
- size of bilateral pulmonary nodules and masses of right predominance [2, 6]: slight increase in the size
- largest of two basal nodules, left lung [2, 7]: 20 mm
- nodule in the left upper lower lobe [2, 7]: 16 mm
- nodules in the posterior apical segment, left lung [2, 7]: 21 mm
- diameter of solid nodule, right pleura, hilar in the middle lobe ([2]; PET/CT Jan. 9, 2023, aprepitant 4200 mg per day with ifosfamide and etoposide since Dec. 9, 2022): 42 mm
- response according to RECIST 1.1 criteria, clinical and serological surveillance ([2]; aprepitant 4200 mg per day orally in 3 doses with ifosfamide and etoposide, from Dec. 9, 2022 to Feb. 15, 2023): stable disease-like response
- Karnofsky [2, 8]: 70%
- impact on the patient compared with the expected course of the disease [2, 8]: positive impact
- symptomatology by the Edmonton scale [2, 8]: no increase in symptoms
- ECOG functional status ([2]; aprepitant 4200 mg per day with ifosfamide and etoposide, since the start of follow-up): 1
- EORTC QLQ-C30 overall score (quality of life) ([2]; aprepitant 4200 mg per day with ifosfamide and etoposide, since the start of therapy): 50%
- tolerance ([2]; aprepitant 4200 mg per day with ifosfamide and etoposide, with supportive treatment): adequate tolerance
- anti-cancer effects in vitro (cell viability, MTT) [3]: exhibited anti-cancer effects
- effect on tumour size / growth [4]: somewhat effective; also recorded: slows the growth of the tumours without any net reduction in the tumour sizes

SMILES: CNC[C@H](O)[C@@H](O)[C@H](O)[C@H](O)CO.CNC[C@H](O)[C@@H](O)[C@H](O)[C@H](O)CO.C[C@@H](O[C@H]1OCCN(Cc2nc(=O)n(P(=O)(O)O)[nH]2)[C@H]1c1ccc(F)cc1)c1cc(C(F)(F)F)cc(C(F)(F)F)c1 [fosaprepitant-dimeglumine, 1-Deoxy-1-(methylamino)-D-glucitol[3-[[(2R,3S)-2-[(1R)-1-[3,5-bis(trifluoromethyl)phenyl]ethoxy]-3-(4-fluorophenyl)-4-morpholinyl]methyl]-2,5-dihydro-5-oxo-1H-1,2,4 triazol-1-yl]phosphonate (2:1) (salt)]
- tumoral growth [1]: reduces tumoral growth

SMILES: C[C@@H](O[C@H]1OCCN(Cc2nc(O)n(P(=O)(O)O)n2)[C@H]1c1ccc(F)cc1)c1cc(C(F)(F)F)cc(C(F)(F)F)c1 [fosaprepitant]
- anti-cancer effects in vitro (cell viability, MTT) [3]: exhibited anti-cancer effects
- therapeutic efficacy against MG-63 xenograft [5]: some therapeutic efficacy

SMILES: Cc1ccccc1-c1cc(N2CCN(C)CC2)ncc1N(C)C(=O)C(C)(C)c1cc(C(F)(F)F)cc(C(F)(F)F)c1 [netupitant]
- anti-cancer effects in vitro (cell viability, MTT) [3]: exhibited anti-cancer effects
